Experimental findings from US12673933B2, “Aminopyrazine compounds as HPK1 inhibitor and the use thereof” (BEIGENE, LTD., priority 2019, dated 2026) are described below.

pIC50: −log10 of the molar value.

The test deals with T1, HPK1 kinase (aa1-346, Life Technologies) (Homo sapiens, UniProt Q92918).
T1 construct: HPK1 kinase (aa1-346, Life Technologies); purchased Life Technologies
T1 sequence (Q92918 1-346): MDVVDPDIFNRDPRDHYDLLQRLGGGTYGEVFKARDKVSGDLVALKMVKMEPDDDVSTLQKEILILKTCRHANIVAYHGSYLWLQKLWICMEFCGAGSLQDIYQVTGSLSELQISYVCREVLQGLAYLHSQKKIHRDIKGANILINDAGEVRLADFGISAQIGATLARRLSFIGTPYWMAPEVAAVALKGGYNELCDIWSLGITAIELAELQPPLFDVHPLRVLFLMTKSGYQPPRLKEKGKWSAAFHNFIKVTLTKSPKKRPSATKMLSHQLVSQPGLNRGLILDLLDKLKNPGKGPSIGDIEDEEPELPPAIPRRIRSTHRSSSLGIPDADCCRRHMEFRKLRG
In words: HPK Kinase Activity Assay at 1 mM ATP (TR-FRET). In kind it is biochemical. As to conditions: HPK1 kinase 40 nM, 0.5 μM STK1 substrate, read-out: Enzymatic activity IC50. The procedure:
HPK Kinase Activity Assay at 1 mM ATP
Compounds disclosed herein were tested for inhibition of HPK1 kinase (aa1-346, Life Technologies) activity in assays based on the time-resolved fluorescence-resonance energy transfer (TR-FRET) methodology. The assays were carried out in 384-well low volume black plates in a reaction mixture containing HPK1 kinase (40 nM), 1 mM ATP, 0.5 μM STK1 substrate and 0-10 μM compound in buffer containing 50 mM HEPES, 0.01% BSA, 0.1 mM Orthovanadate, 10 mM MgCl2, 1 mM DTT, pH=7.0, 0.005% Tween-20. The kinase was incubated with the compounds disclosed herein or DMSO for 60 minutes at room temperature and the reaction was initiated by the addition of ATP and STK1 substrate. After reaction at room temperature for 120 minutes, an equal volume of stop/detection solution was added according to the manufacture's instruction (CisBio). The stop/detection solution contained STK Antibody-Cryptate and XL665-conjugated streptavidin in Detection Buffer. The TR-FRET signals (ratio of fluorescence emission at 665 nm over emission at 620 nm with excitation at 337 nm wavelength) were recorded on a PHERAstar FS plate reader (BMG Labtech). Phosphorylation of STK1 substrate led to the binding of STK Antibody-Cryptate to the biotinylated STK1 substrate, which places fluorescent donor (Eu^3+ crypate) in close proximity to the accepter (Streptavidin-XL665), thus resulting in a high degree of fluorescence resonance energy transfer. The inhibition of HPK1 in presence of increasing concentrations of compounds was calculated based on the ratio of fluorescence at 665 nm to that at 620 nm. The IC50 for each compound was derived from fitting the data to the four-parameter logistic equation by Graphpad Prism software.
(In general: In TR-FRET formats the signal depends on donor and acceptor labels being close together.)
Consider `Cc1cc(-c2cnc(N)c(OCc3ccncc3OCc3ccccc3)n2)cc2c1CCN(C)C2` [Example 33, 3-((3-(benzyloxy)pyridin-4-yl)methoxy)-5-(2,5-dimethyl-1,2,3,4-tetrahydroisoquinolin-7-yl)pyrazin-2-amine], for which the pIC50 was 8.09.

Consider `Cc1cc(-c2cnc(N)c(OCc3ccnc4[nH]ccc34)n2)cc2c1CCN(C)C2` [Example 34, 3-((1H-pyrrolo[2,3-b]pyridin-4-yl)methoxy)-5-(2,5-dimethyl-1,2,3,4-tetrahydroisoquinolin-7-yl)pyrazin-2-amine], for which the pIC50 is 7.92. As for `COc1c(COc2nc(-c3cc(C)c4c(c3)CN(C)CC4)cnc2N)ccnc1N` [Example 35, 3-((2-amino-3-methoxypyridin-4-yl)methoxy)-5-(2,5-dimethyl-1,2,3,4-tetrahydroisoquinolin-7-yl)pyrazin-2-amine], the pIC50 was 7.80. Then `Cc1cc(-c2cnc(N)c(-c3cn[nH]c3)n2)cc2c1CCN(C)C2` [Example 36, 5-(2,5-dimethyl-1,2,3,4-tetrahydroisoquinolin-7-yl)-3-(1H-pyrazol-4-yl)pyrazin-2-amine], with 7.03. With `Cc1cc(-c2cnc(N)c(OCc3ccnc(NCC4CC4)c3)n2)cc2c1CCN(C)C2` [Example 38, 3-((2-((cyclopropylmethyl)amino)pyridin-4-yl)methoxy)-5-(2,5-dimethyl-1,2,3,4-tetrahydroisoquinolin-7-yl)pyrazin-2-amine] the figure was 7.24; with `CC(=O)Nc1cc(COc2nc(-c3cc(C)c4c(c3)CN(C)CC4)cnc2N)ccn1` [Example 39, N-(4-(((3-amino-6-(2,5-dimethyl-1,2,3,4-tetrahydroisoquinolin-7-yl)pyrazin-2-yl)oxy)methyl)pyridin-2-yl)acetamide], 7.07; with `CCNc1cc(COc2nc(-c3cc(C)c4c(c3)CN(C)CC4)cnc2N)ccn1` [Example 40, 5-(2,5-dimethyl-1,2,3,4-tetrahydroisoquinolin-7-yl)-3-((2-(ethylamino)pyridin-4-yl)methoxy)pyrazin-2-amine], 7.54. With `CCOc1c(COc2nc(-c3cc(C)c4c(c3)CN(C)CC4)cnc2N)ccnc1N` [Example 41, 3-((2-amino-3-ethoxypyridin-4-yl)methoxy)-5-(2,5-dimethyl-1,2,3,4-tetrahydroisoquinolin-7-yl)pyrazin-2-amine] the figure was 8.05. On to `Cc1cc(-c2cnc(N)c(OCc3ccncc3Oc3ccccc3)n2)cc2c1CCN(C)C2` [Example 42, 5-(2,5-dimethyl-1,2,3,4-tetrahydroisoquinolin-7-yl)-3-((3-phenoxypyridin-4-yl)methoxy)pyrazin-2-amine], for which the pIC50 was 7.03. Then `Cc1cc(-c2cnc(N)c(OCc3cc[nH]n3)n2)cc2c1CCN(C)C2` [Example 43, 3-((1H-pyrazol-3-yl)methoxy)-5-(2,5-dimethyl-1,2,3,4-tetrahydroisoquinolin-7-yl)pyrazin-2-amine], with 7.25; and `Cc1cc(-c2cnc(N)c(OCc3ccnc4[nH]cnc34)n2)cc2c1CCN(C)C2` [Example 44, 3-((3H-imidazo[4,5-b]pyridin-7-yl)methoxy)-5-(2,5-dimethyl-1,2,3,4-tetrahydroisoquinolin-7-yl)pyrazin-2-amine and 3-((1H-imidazo[4,5-b]pyridin-7-yl)methoxy)-5-(2,5-dimethyl-1,2,3,4-tetrahydroisoquinolin-7-yl)pyrazin-2-amine], with 7.72; and `CCn1cc(Oc2nc(-c3cc(C)c4c(c3)CN(C)CC4)cnc2N)cn1` [Example 45, 5-(2,5-dimethyl-1,2,3,4-tetrahydroisoquinolin-7-yl)-3-(1-ethyl-1H-pyrazol-4-yloxy)pyrazin-2-amine], with 7.82. Then `Cc1cc(-c2cnc(N)c(-n3cc(C(=O)N(C)C)cn3)n2)cc2c1CCN(C)C2` [Example 46, 1-(3-amino-6-(2,5-dimethyl-1,2,3,4-tetrahydroisoquinolin-7-yl)pyrazin-2-yl)-N,N-dimethyl-1H-pyrazole-4-carboxamide], with 7.68.

For orientation: pIC50 means the negative decadic logarithm of the IC50, by convention in mol/L.
